Data taken from patent US20230263768A1, “WATER-SOLUBLE ARTESUNATE-BASED THERAPY FOR CORONAVIRUS INFECTION” (priority 2020, published 2023).

Experiments:
[1] = Solubility of artesunate formulations in simulated gastric fluid; format: physicochemical; conditions: 0.5 g in 10 mL SGF pH 1.2, 36.5° C., 100 rev/min, after 30 minutes
Procedure: An amount of 0.5 g of different artesunate formulations (untreated artesunate, sodium Artesunate, Artesunate/SG complex and WSA powders) are dispersed in 10 mL of simulated gastric fluid (SGF, pH 1.2). All solutions are incubated at 36.5° C. under mild shaking with (100 rev/min) in a G24 Environmental Incubator Shaker (New Brunswick Scientific Co., NJ, USA).

[2] = system: SARS-CoV-2 (isolate USA-WA1-2020); experiment: SARS-CoV-2 replication in VERO E6 cells, viral RNA by qPCR (Ct) after 48 h; format: cell-based
[3] = Example 4, 160 µg/mL, 48 h, VERO E6

| SMILES | appearance of the solution / precipitation in SGF [1] | Cycle Threshold Value (quantity of viral RNA) [2, 3] | antiviral activity (in words) [2, 3] | Cycle Threshold Value (quantity of viral RNA) ([2]; Example 4, 160 µg/mL, 48 h, VERO E6, listed as sodium artesunate) | antiviral activity (in words) ([2]; Example 6, dose response and combination with Telmisartan) |
| --- | --- | --- | --- | --- | --- |
| C[C@@H]1CCC2[C@@H](C)[C@H](OC(=O)CCC(=O)O)OC3O[C@]4(C)CCC1[C@]32OO4 (stereo partly drawn) [untreated Artesunate, Artesunate] | milky appearance, with an important precipitation at the bottom of vial |  |  |  |  |
| C[C@H]1[C@H](OC(=O)CCC(=O)[O-])O[C@@H]2O[C@@]3(C)CC[C@H]4[C@H](C)CC[C@@H]1[C@@]24OO3.[Na+] [Sodium Artesunate] | cloudy, but no evident precipitation is observed | 22.5 | Low antiviral activity | about 23 |  |
| CCCc1nc2c(C)cc(-c3nc4ccccc4n3C)cc2n1Cc1ccc(-c2ccccc2C(=O)O)cc1 [Telmisartan] |  |  |  |  | No activity antiviral is observed |
